What was measured:
Assay in all cases: KINOMEscan
Assay type in all cases: binding
CHEK2 = molecular target: T1, CHEK2 (Homo sapiens, UniProt O96017); settings: CHEK2, 1 uM
T1 construct: purchased Ambit KINOMEscan (DiscoverX)
Procedure, shortened: (§1)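 Panel profiling at one dose (1 μM) identifies kinases prevented from binding substrate by the test molecule.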

STK36 = molecular target: T2, STK36 (Homo sapiens, UniProt Q9NRP7); settings: STK36, 1 uM
T2 construct: purchased Ambit KINOMEscan (DiscoverX)
Procedure, shortened: as §1

FLT3(D835H) = molecular target: T3, FLT3(D835H) (Homo sapiens, UniProt P36888, D835H); settings: 1 uM
T3 construct: purchased Ambit KINOMEscan (DiscoverX)
Procedure, shortened: as §1

CDK7 = molecular target: T4, CDK7 (Homo sapiens, UniProt P50613); settings: CDK7, 1 uM
T4 construct: purchased Ambit KINOMEscan (DiscoverX)
T4 sequence (P50613 whole entry): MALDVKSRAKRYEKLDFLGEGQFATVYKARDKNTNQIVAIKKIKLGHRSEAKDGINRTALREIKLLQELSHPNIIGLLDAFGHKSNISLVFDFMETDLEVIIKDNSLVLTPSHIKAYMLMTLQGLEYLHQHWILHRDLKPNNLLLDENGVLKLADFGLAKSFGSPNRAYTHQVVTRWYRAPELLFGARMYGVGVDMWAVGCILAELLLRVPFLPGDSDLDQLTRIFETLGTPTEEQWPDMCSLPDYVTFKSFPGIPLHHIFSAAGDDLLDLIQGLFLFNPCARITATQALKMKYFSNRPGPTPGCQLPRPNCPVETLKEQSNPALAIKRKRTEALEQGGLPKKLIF
Procedure, shortened: as §1

ULK1 = molecular target: T5, ULK1 (Homo sapiens, UniProt O75385); settings: ULK1, 1 uM
T5 construct: purchased Ambit KINOMEscan (DiscoverX)
T5 sequence (O75385 whole entry): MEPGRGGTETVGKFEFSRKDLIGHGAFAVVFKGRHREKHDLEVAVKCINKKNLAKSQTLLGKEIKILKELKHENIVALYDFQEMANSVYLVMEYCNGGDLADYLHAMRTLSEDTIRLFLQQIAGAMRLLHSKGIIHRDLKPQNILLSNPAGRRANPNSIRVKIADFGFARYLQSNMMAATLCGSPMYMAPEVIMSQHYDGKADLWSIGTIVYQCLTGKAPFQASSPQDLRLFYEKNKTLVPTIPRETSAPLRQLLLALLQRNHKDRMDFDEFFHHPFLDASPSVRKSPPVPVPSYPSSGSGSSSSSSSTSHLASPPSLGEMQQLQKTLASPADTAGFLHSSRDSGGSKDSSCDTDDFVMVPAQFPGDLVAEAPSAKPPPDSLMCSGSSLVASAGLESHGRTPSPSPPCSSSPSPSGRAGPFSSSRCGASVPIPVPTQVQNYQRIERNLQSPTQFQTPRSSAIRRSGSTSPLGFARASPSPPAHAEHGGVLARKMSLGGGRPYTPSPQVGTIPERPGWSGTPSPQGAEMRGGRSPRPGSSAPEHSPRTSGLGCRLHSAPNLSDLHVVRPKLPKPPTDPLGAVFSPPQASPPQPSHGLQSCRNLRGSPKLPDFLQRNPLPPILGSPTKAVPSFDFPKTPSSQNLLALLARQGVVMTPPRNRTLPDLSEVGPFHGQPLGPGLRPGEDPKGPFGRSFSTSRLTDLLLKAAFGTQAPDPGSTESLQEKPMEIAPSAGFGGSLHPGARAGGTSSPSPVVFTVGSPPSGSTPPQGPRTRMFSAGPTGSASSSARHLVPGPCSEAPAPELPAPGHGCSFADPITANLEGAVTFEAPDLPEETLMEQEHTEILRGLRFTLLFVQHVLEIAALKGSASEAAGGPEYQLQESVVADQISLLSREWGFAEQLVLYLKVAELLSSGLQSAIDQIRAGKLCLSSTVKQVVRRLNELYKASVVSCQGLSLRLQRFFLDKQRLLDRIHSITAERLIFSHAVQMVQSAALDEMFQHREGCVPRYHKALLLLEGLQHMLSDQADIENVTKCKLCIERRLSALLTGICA
Procedure, shortened: as §1

[1] = molecular target: T6, RPS6KA1(Kin.Dom.2-C-terminal) (Homo sapiens, UniProt Q15418); settings: 1 uM
T6 construct: RPS6KA1(Kin.Dom.2-C-terminal); purchased Ambit KINOMEscan (DiscoverX)
Procedure, shortened: as §1

MRCKA = molecular target: T7, MRCKA (Homo sapiens, UniProt Q5VT25); settings: 1 uM
T7 construct: purchased Ambit KINOMEscan (DiscoverX)
T7 sequence (Q5VT25 whole entry): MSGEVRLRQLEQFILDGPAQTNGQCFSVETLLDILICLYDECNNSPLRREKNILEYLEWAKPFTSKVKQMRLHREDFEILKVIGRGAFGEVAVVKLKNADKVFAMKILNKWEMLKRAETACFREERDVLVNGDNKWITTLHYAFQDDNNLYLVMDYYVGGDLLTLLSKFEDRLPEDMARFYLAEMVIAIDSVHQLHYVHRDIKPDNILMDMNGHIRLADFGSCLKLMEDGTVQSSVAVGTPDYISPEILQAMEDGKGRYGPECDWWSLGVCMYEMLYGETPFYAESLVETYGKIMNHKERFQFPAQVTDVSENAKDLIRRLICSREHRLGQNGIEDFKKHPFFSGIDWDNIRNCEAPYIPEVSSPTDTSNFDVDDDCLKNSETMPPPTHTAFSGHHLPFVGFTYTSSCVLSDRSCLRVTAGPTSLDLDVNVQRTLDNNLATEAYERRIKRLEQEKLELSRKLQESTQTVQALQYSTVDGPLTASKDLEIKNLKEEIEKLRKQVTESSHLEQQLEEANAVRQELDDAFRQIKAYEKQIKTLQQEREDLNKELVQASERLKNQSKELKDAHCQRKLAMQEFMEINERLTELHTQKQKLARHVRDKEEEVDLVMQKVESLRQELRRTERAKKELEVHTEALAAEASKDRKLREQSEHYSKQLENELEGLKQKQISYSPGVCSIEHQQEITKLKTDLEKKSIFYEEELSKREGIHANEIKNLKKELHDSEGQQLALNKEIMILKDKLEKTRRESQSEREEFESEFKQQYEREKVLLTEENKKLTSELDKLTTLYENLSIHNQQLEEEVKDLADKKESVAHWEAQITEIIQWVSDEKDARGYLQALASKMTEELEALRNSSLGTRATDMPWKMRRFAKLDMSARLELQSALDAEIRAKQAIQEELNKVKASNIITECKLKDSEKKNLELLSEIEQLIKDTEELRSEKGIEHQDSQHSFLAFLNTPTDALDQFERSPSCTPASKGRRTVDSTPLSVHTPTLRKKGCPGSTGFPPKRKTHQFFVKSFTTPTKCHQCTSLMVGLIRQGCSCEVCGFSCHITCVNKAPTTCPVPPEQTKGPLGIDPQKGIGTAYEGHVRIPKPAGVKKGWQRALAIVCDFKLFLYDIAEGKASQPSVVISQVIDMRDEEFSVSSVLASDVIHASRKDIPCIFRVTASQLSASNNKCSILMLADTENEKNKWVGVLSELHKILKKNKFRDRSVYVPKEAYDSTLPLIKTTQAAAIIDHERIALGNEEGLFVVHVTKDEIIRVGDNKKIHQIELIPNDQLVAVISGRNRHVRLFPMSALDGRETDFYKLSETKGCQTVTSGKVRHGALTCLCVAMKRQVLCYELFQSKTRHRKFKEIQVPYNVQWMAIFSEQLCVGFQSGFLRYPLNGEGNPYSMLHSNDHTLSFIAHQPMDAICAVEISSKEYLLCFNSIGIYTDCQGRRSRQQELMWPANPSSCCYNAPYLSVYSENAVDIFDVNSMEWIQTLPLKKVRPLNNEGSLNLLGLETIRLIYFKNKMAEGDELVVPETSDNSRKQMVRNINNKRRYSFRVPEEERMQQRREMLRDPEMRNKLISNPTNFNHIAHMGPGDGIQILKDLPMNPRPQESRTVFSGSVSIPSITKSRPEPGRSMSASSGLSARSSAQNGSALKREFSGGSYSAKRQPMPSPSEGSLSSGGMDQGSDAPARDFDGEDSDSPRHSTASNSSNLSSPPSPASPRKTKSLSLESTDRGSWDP
Procedure, shortened: as §1

GSK3B = molecular target: T8, GSK3B (Homo sapiens, UniProt P49841); settings: for % binding compared to no inhibitor control: GSK3B, 1 uM
T8 construct: purchased Ambit KINOMEscan (DiscoverX)
T8 sequence (P49841 whole entry): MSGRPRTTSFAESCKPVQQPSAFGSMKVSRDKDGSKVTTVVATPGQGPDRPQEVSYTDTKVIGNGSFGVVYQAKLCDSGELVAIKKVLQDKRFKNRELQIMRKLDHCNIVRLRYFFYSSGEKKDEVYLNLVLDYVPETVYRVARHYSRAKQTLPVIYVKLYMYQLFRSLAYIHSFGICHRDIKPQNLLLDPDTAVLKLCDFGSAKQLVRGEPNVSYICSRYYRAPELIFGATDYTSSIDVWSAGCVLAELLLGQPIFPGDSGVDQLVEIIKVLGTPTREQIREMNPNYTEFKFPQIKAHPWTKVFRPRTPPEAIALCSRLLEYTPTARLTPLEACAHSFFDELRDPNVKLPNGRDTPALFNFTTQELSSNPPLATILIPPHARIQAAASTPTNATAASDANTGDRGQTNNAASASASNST
Procedure, shortened: as §1

LZK = molecular target: T9, LZK (Homo sapiens, UniProt O43283); settings: 1 uM
T9 construct: purchased Ambit KINOMEscan (DiscoverX)
Procedure, shortened: as §1

LIMK1 = molecular target: T10, LIMK1 (Homo sapiens, UniProt P53667); settings: LIMK1, 1 uM
T10 construct: purchased Ambit KINOMEscan (DiscoverX)
Procedure, shortened: as §1

PIK4CB = molecular target: T11, PIK4CB (Homo sapiens, UniProt Q9UBF8); settings: 1 uM
T11 construct: purchased Ambit KINOMEscan (DiscoverX)
Procedure, shortened: as §1

CSK = molecular target: T12, CSK (Homo sapiens, UniProt P41240); settings: 1 uM
T12 construct: purchased Ambit KINOMEscan (DiscoverX)
Procedure, shortened: as §1

ULK3 = molecular target: T13, ULK3 (Homo sapiens, UniProt Q6PHR2); settings: ULK3, 1 uM
T13 construct: purchased Ambit KINOMEscan (DiscoverX)
T13 sequence (Q6PHR2 whole entry): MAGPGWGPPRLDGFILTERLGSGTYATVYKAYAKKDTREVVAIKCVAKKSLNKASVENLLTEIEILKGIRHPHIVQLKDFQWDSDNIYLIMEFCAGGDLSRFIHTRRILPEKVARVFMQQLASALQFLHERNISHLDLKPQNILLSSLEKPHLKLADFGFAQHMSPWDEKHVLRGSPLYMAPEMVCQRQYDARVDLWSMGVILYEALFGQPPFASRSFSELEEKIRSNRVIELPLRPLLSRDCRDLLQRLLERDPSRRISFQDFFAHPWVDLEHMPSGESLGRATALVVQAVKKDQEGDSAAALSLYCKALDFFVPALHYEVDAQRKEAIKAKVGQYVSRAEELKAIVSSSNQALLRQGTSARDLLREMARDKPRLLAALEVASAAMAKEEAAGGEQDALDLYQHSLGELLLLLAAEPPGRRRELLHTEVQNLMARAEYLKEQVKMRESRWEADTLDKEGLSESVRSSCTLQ
Procedure, shortened: as §1

MEK3 = molecular target: T14, MEK3 (Homo sapiens, UniProt P46734); settings: MEK3, 1 uM
T14 construct: purchased Ambit KINOMEscan (DiscoverX)
T14 sequence (P46734 whole entry): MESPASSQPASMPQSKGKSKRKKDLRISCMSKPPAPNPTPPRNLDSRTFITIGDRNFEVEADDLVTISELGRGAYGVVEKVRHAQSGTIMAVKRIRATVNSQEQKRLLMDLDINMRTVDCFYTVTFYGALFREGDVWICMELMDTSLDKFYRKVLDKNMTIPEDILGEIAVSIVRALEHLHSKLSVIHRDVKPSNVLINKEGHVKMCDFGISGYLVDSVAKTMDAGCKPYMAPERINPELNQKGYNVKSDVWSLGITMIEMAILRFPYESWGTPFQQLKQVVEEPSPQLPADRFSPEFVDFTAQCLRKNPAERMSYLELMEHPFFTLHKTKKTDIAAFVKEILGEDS
Procedure, shortened: as §1

TXK = molecular target: T15, TXK (Homo sapiens, UniProt P42681); settings: 1 uM
T15 construct: purchased Ambit KINOMEscan (DiscoverX)
Procedure, shortened: as §1

EPHB1 = molecular target: T16, EPHB1 (Homo sapiens, UniProt P54762); settings: EPHB1, 1 uM
T16 construct: purchased Ambit KINOMEscan (DiscoverX)
Procedure, shortened: as §1

FLT3(N841I) = molecular target: T17, FLT3(N841I) (Homo sapiens, UniProt P36888, N841I); settings: 1 uM
T17 construct: purchased Ambit KINOMEscan (DiscoverX)
Procedure, shortened: as §1

EPHB4 = molecular target: T18, EPHB4 (Homo sapiens, UniProt P54760); settings: EPHB4, 1 uM
T18 construct: purchased Ambit KINOMEscan (DiscoverX)
Procedure, shortened: as §1

ERK8 = molecular target: T19, ERK8 (Homo sapiens, UniProt Q8TD08); settings: ERK8, 1 uM
T19 construct: purchased Ambit KINOMEscan (DiscoverX)
Procedure, shortened: as §1

MINK = molecular target: T20, MINK (Homo sapiens, UniProt Q8N4C8); settings: 1 uM
T20 construct: purchased Ambit KINOMEscan (DiscoverX)
Procedure, shortened: as §1

MRCKB = molecular target: T21, MRCKB (Homo sapiens, UniProt Q9Y5S2); settings: 1 uM
T21 construct: purchased Ambit KINOMEscan (DiscoverX)
Procedure, shortened: as §1

AURKA = molecular target: T22, AURKA (Homo sapiens, UniProt O14965); settings: 1 uM
T22 construct: purchased Ambit KINOMEscan (DiscoverX)
Procedure, shortened: as §1

CSNK1D = molecular target: T23, CSNK1D (Homo sapiens, UniProt P48730); settings: 1 uM
T23 construct: purchased Ambit KINOMEscan (DiscoverX)
Procedure, shortened: as §1

MAP4K2 = molecular target: T24, MAP4K2 (Homo sapiens, UniProt Q12851); settings: for % binding compared to no inhibitor control: MAP4K2, 1 uM
T24 construct: purchased Ambit KINOMEscan (DiscoverX)
T24 sequence (Q12851 1-820): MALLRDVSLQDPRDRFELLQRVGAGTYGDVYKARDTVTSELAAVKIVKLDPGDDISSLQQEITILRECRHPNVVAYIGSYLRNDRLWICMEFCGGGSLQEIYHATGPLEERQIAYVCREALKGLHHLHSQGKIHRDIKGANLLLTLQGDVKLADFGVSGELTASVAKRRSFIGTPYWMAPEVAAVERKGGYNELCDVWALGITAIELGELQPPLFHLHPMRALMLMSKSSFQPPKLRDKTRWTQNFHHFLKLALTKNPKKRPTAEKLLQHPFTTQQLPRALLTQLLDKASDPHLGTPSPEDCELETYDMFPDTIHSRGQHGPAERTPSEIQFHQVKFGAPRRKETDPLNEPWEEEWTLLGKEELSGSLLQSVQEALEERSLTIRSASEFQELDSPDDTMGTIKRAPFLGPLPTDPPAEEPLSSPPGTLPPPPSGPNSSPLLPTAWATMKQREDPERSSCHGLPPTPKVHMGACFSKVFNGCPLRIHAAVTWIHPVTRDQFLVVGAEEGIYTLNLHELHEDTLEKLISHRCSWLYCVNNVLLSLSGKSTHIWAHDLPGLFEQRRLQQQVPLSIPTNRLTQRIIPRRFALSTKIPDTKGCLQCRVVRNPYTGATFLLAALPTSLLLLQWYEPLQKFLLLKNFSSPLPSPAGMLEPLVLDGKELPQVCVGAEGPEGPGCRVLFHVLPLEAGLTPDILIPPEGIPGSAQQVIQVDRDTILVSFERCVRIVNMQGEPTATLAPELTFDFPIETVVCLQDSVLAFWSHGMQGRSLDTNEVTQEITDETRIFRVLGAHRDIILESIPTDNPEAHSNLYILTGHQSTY
Procedure, shortened: as §1

PRKR = molecular target: T25, PRKR (Homo sapiens, UniProt P19525); settings: 1 uM
T25 construct: purchased Ambit KINOMEscan (DiscoverX)
Procedure, shortened: as §1

IKK-epsilon = molecular target: T26, IKK-epsilon (Homo sapiens, UniProt Q14164); settings: 1 uM
T26 construct: purchased Ambit KINOMEscan (DiscoverX)
Procedure, shortened: as §1

EPHA3 = molecular target: T27, EPHA3 (Homo sapiens, UniProt P29320); settings: EPHA3, 1 uM
T27 construct: purchased Ambit KINOMEscan (DiscoverX)
Procedure, shortened: as §1

MAST1 = molecular target: T28, MAST1 (Homo sapiens, UniProt Q9Y2H9); settings: MAST1, 1 uM
T28 construct: purchased Ambit KINOMEscan (DiscoverX)
Procedure, shortened: as §1

CSNK2A1 = molecular target: T29, CSNK2A1 (Homo sapiens, UniProt P68400); settings: CSNK2A1, 1 uM
T29 construct: purchased Ambit KINOMEscan (DiscoverX)
Procedure, shortened: as §1

T1 sequence (O96017 whole entry): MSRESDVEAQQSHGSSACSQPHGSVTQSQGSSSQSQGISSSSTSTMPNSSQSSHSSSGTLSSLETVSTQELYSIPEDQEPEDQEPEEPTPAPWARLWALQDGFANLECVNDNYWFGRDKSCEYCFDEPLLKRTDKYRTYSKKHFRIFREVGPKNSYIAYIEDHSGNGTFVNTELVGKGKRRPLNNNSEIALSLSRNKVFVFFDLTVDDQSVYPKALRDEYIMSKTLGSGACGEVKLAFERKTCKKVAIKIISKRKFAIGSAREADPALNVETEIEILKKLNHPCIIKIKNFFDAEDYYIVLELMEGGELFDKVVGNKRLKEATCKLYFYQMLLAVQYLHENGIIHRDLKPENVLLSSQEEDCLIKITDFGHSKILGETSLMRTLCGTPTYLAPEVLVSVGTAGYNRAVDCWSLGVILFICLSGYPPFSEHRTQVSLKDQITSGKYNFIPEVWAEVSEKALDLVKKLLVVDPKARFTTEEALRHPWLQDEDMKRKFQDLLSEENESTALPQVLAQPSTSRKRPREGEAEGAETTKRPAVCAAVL

Q: With `COc1ccccc1Nc1nc(-c2ccc(OC)c(OC)c2)cc2nccn12` [BAY derivative 6] as the compound, how does the “% binding compared to no inhibitor control” value (CHEK2) read?
A: 97%

Q: What about the “% binding compared to no inhibitor control” value (STK36) of the same compound?
A: 100%

Q: What about the “% binding compared to no inhibitor control” value (FLT3(D835H)) of the same compound?
A: 42%

Q: What about the “% binding compared to no inhibitor control” value (CDK7) of the same compound?
A: 100%

Q: And the “% binding compared to no inhibitor control” value (ULK1)?
A: 100%

Q: And the “% binding compared to no inhibitor control” value [1]?
A: 100%

Q: What about the “% binding compared to no inhibitor control” value (MRCKA) of the same compound?
A: 79%

Q: And the “% binding compared to no inhibitor control” value (GSK3B)?
A: 100%

Q: And the “% binding compared to no inhibitor control” value (LZK)?
A: 100%

Q: And the “% binding compared to no inhibitor control” value (LIMK1)?
A: 91%

Q: What about the “% binding compared to no inhibitor control” value (PIK4CB) of the same compound?
A: 100%

Q: And the “% binding compared to no inhibitor control” value (CSK)?
A: 99%

Q: And the “% binding compared to no inhibitor control” value (ULK3)?
A: 100%

Q: And the “% binding compared to no inhibitor control” value (MEK3)?
A: 94%

Q: What about the “% binding compared to no inhibitor control” value (TXK) of the same compound?
A: 78%

Q: And the “% binding compared to no inhibitor control” value (EPHB1)?
A: 100%

Q: What about the “% binding compared to no inhibitor control” value (FLT3(N841I)) of the same compound?
A: 53%

Q: What about the “% binding compared to no inhibitor control” value (EPHB4) of the same compound?
A: 97%

Q: And the “% binding compared to no inhibitor control” value (ERK8)?
A: 98%

Q: And the “% binding compared to no inhibitor control” value (MINK)?
A: 100%

Q: And the “% binding compared to no inhibitor control” value (MRCKB)?
A: 100%

Q: What about the “% binding compared to no inhibitor control” value (AURKA) of the same compound?
A: 87%

Q: And the “% binding compared to no inhibitor control” value (CSNK1D)?
A: 100%

Q: And the “% binding compared to no inhibitor control” value (MAP4K2)?
A: 100%

Q: And the “% binding compared to no inhibitor control” value (PRKR)?
A: 100%

Q: What about the “% binding compared to no inhibitor control” value (IKK-epsilon) of the same compound?
A: 96%

Q: And the “% binding compared to no inhibitor control” value (EPHA3)?
A: 100%

Q: And the “% binding compared to no inhibitor control” value (MAST1)?
A: 74%

Q: And the “% binding compared to no inhibitor control” value (CSNK2A1)?
A: 86%

Q: With `COc1ccc(-c2cc3nccn3c(Nc3ncccc3C(N)=O)n2)cc1OC.Cl.Cl` [BAY61-3606, 2-[7-(3,4-dimethoxyphenyl)-imidazo [1,2-c]pyrimidin-5-ylamino] nicotinamide dihydrochloride, reference compound] as the compound, how does the “% binding compared to no inhibitor control” value (CHEK2) read?
A: 100%

Q: What about the “% binding compared to no inhibitor control” value (STK36) of the same compound?
A: 74%

Q: What about the “% binding compared to no inhibitor control” value (FLT3(D835H)) of the same compound?
A: 7.9%

Q: What about the “% binding compared to no inhibitor control” value (CDK7) of the same compound?
A: 33%

Q: And the “% binding compared to no inhibitor control” value (ULK1)?
A: 97%

Q: What about the “% binding compared to no inhibitor control” value [1] of the same compound?
A: 50%

Q: What about the “% binding compared to no inhibitor control” value (MRCKA) of the same compound?
A: 83%

Q: And the “% binding compared to no inhibitor control” value (GSK3B)?
A: 39%

Q: What about the “% inhibition ATP binding” value (GSK3B; GSK3β, KINOMEscan, 1 μM) of the same compound?
A: 61%

Q: What about the “% binding compared to no inhibitor control” value (LZK) of the same compound?
A: 64%

Q: And the “% binding compared to no inhibitor control” value (LIMK1)?
A: 100%

Q: What about the “% binding compared to no inhibitor control” value (PIK4CB) of the same compound?
A: 24%

Q: And the “% binding compared to no inhibitor control” value (CSK)?
A: 68%

Q: What about the “% binding compared to no inhibitor control” value (ULK3) of the same compound?
A: 51%

Q: And the “% binding compared to no inhibitor control” value (MEK3)?
A: 21%

Q: What about the “% binding compared to no inhibitor control” value (TXK) of the same compound?
A: 95%

Q: What about the “% binding compared to no inhibitor control” value (EPHB1) of the same compound?
A: 90%

Q: What about the “% binding compared to no inhibitor control” value (FLT3(N841I)) of the same compound?
A: 1.5%

Q: And the “% binding compared to no inhibitor control” value (EPHB4)?
A: 86%

Q: And the “% binding compared to no inhibitor control” value (ERK8)?
A: 92%

Q: And the “% binding compared to no inhibitor control” value (MINK)?
A: 62%

Q: And the “% binding compared to no inhibitor control” value (MRCKB)?
A: 99%

Q: What about the “% binding compared to no inhibitor control” value (AURKA) of the same compound?
A: 91%

Q: What about the “% binding compared to no inhibitor control” value (CSNK1D) of the same compound?
A: 74%

Q: And the “% binding compared to no inhibitor control” value (MAP4K2)?
A: 6%

Q: And the “% inhibition ATP binding” value (MAP4K2; MAP4K2, KINOMEscan, 1 μM)?
A: 94%

Q: What about the “% binding compared to no inhibitor control” value (PRKR) of the same compound?
A: 27%

Q: And the “% binding compared to no inhibitor control” value (IKK-epsilon)?
A: 33%

Q: And the “% binding compared to no inhibitor control” value (EPHA3)?
A: 83%

Q: What about the “% binding compared to no inhibitor control” value (MAST1) of the same compound?
A: 52%

Q: What about the “% binding compared to no inhibitor control” value (CSNK2A1) of the same compound?
A: 70%

From article PMC3399817 (PLoS ONE, 2012)
